Experimental data taken from US9855245B2, “Methods for improving lipid profiles using atrasentan” (AbbVie Inc., priority 2013, dated 2018).
Where a name gives a salt, the structure may show the parent alone. Read-outs that look alike come from different tables or passages of the source. Non-standard residues stand in square brackets, D forms with d. Residues, ends and D or L forms follow the SMILES beside them.

Key:
[1] = cited from earlier work
[2] = system: subjects with type 2 diabetes and nephropathy; experiment: Example 3: Phase 2b randomized, double-blind, placebo-controlled 8-week study with thoracic bioimpedance; type: in vivo, human; settings: dose of 0.5 mg
Description: This study also included measurement of thoracic bioimpedance to assess the potential for thoracic fluid retention with atrasentan.
An equal percentage of subjects in all 3 groups experienced an adverse event (81.3%). […] (Table 17).
A mean decrease of 4 ohms in thoracic bioimpedance, as measured by the ZOE® Fluid Status Monitor, is considered clinically indicative of thoracic fluid overload. Mean thoracic bioimpedance fluctuated in all treatment groups over time, with greater mean changes in the 2 atrasentan groups than in the placebo group.

[3] = system: ob-ZSF1 rats; experiment: Example 5: preclinical study of hypotensive synergy, mean arterial pressure; type: in vivo, rat; settings: 10 mg/kg/day for 12 weeks
Description: In the example, a preclinical animal model is used to evaluate whether atrasentan and an ARB cause a synergistic hypotensive effect.

## CC(C)C[C@@H]1NC(=O)[C@@H](C(C)C)NC(=O)[C@@H]2CCCN2C(=O)[C@@H](CC(=O)O)NC(=O)[C@@H](Cc2c[nH]c3ccccc23)NC1=O [BQ-123] (cyclo(L[dW][dD]P[dV]))
[1]; BQ-123 alone
  mean arterial pressure, mean area under curve +/− SEM: −2.3 mmHg
[1]; BQ-123 plus enalapril
  mean arterial pressure, mean area under curve +/− SEM: −5.1 mmHg

## CCCCN(CCCC)C(=O)CN1C[C@H](c2ccc3c(c2)OCO3)[C@@H](C(=O)O)[C@@H]1c1ccc(OC)cc1 [atrasentan HCl]
[2]
  reduction in UACR: not demonstrated to result in a statistically significant reduction in UACR

## CCCCc1nc(Cl)c(CO)n1Cc1ccc(-c2ccccc2-c2nn[nH]n2)cc1 [losartan, reference compound]
[3]
  mean arterial pressure (MAP): significant decrease
